Measured values from ChEMBL document CHEMBL1133362, “Discovery and evaluation of potent, cysteine-based alpha4beta1 integrin antagonists” (Bioorg Med Chem Lett, 2000).
pIC50: −log10 of the molar value.

Molecular target: Integrin alpha-4/beta-1 (Homo sapiens, UniProt P05556+P13612)
Test: Inhibition of VCAM (vascular cell adhesion molecule) adhesion to alpha4-beta1 integrin of leukocyte cells
Type: functional, cell-based

Sequence of Integrin alpha-4/beta-1 (P05556 whole entry): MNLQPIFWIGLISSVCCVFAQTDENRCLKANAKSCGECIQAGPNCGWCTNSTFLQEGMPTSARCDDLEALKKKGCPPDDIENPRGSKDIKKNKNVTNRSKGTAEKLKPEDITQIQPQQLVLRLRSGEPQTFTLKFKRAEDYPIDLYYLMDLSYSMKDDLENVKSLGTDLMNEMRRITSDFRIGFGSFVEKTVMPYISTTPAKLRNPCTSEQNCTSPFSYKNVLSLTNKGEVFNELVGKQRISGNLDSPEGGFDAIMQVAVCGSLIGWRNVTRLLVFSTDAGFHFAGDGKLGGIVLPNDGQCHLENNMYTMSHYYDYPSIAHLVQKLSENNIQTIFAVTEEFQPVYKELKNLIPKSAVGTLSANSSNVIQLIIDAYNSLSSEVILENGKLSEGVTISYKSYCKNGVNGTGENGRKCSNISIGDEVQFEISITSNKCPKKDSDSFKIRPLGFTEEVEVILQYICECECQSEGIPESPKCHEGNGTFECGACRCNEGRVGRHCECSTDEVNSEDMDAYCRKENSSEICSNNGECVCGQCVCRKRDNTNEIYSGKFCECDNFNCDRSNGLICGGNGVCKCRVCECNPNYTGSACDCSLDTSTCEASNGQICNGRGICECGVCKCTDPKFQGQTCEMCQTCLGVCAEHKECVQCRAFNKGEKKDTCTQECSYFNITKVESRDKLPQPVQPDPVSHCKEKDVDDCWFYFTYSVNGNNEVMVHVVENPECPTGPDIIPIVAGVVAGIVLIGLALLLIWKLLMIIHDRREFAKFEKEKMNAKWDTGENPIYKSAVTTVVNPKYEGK
Sequence of Integrin alpha-4/beta-1 (P13612 whole entry): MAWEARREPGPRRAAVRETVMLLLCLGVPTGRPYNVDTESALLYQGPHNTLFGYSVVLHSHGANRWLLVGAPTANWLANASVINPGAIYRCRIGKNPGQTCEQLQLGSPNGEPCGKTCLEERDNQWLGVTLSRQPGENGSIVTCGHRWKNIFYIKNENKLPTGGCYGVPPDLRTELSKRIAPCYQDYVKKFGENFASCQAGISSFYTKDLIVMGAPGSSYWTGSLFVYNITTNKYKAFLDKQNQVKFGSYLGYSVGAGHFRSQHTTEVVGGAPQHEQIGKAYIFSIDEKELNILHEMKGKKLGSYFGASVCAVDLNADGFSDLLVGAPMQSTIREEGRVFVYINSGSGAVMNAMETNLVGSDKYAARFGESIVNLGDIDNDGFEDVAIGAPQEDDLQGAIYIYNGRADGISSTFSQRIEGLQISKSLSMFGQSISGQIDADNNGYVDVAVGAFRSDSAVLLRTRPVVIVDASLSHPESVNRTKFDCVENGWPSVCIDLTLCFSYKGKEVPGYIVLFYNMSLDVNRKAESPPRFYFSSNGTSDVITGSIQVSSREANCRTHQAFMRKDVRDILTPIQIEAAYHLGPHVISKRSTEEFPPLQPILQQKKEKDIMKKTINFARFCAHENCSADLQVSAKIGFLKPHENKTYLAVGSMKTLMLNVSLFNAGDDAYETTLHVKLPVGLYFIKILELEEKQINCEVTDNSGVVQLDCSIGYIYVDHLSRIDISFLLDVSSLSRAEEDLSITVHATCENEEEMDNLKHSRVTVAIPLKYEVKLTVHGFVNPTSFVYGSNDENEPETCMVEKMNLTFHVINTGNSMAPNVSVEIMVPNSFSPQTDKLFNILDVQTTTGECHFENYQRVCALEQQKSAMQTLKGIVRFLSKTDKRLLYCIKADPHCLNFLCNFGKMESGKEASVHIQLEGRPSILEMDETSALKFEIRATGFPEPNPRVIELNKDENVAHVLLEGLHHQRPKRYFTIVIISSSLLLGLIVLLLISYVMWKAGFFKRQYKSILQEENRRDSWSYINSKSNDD

Compared with `O=C(O)[C@H](CSSCCNC(=O)C12CC3CC(CC(C3)C1)C2)NC(=O)C12CC3CC(CC(C3)C1)C2`, `O=C(O)[C@H](CSSC[C@H](NC(=O)C12CC3CC(CC(C3)C1)C2)C(=O)O)NC(=O)C12CC3CC(CC(C3)C1)C2` is 0.25 log units lower in pIC50: 5.39 for the first, 5.14 for the second.

First: O=C(O)C[C@H]1CN2CCCC[C@H]2C(=O)N[C@H](C(=O)O)CSSC[C@H](NC(=O)C23CC4CC(CC(C4)C2)C3)C(=O)N1
Second: O=C(O)C[C@H]1CN2CCC[C@H]2C(=O)N[C@H](C(=O)O)CSSC[C@H](NC(=O)C23CC4CC(CC(C4)C2)C3)C(=O)N1
The pIC50 of the first is 1.15 log units higher: 7.92 for the first, 6.77 for the second.

Going from `O=C(O)C[C@H]1CN2CSC[C@H]2C(=O)N[C@H](C(=O)O)CSSC[C@H](NC(=O)C23CC4CC(CC(C4)C2)C3)C(=O)N1` to `C[C@H]1CN2CCC[C@H]2C(=O)N[C@H](C(=O)O)CSSC[C@H](NC(=O)C23CC4CC(CC(C4)C2)C3)C(=O)N1`, the pIC50 falls from 7.33 to 6.48 (0.85 log units).

Compared with `CC(=O)N1CSC[C@H]1C(=O)N[C@@H](CSSCCNC(=O)C12CC3CC(CC(C3)C1)C2)C(=O)O`, `CC(=O)N1CCC[C@H]1C(=O)N[C@@H](CSSCCNC(=O)C12CC3CC(CC(C3)C1)C2)C(=O)O` is 0.92 log units lower in pIC50: 6.55 for the first, 5.63 for the second. The first is the more potent here.

Compared with `COC(=O)[C@H](CSSC[C@H](NC(=O)C12CC3CC(CC(C3)C1)C2)C(=O)O)NC(=O)C12CC3CC(CC(C3)C1)C2`, `COC(=O)[C@H](CSSC[C@H](NC(=O)C12CC3CC(CC(C3)C1)C2)C(=O)OC)NC(=O)C12CC3CC(CC(C3)C1)C2` is lower in pIC50: 5.29 for the first, under 3.10 for the second.

Compared with `COC(=O)[C@H](CSSC[C@H](NC(=O)[C@@H]1CCCN1C(C)=O)C(=O)O)NC(=O)C12CC3CC(CC(C3)C1)C2`, `CC(=O)N1CCCC[C@H]1C(=O)N[C@@H](CSSCCNC(=O)C12CC3CC(CC(C3)C1)C2)C(=O)O` is 1.77 log units higher in pIC50: 4.60 for the first, 6.37 for the second.
